The numbers were not newly measured in article PMC10879502, “Linking ATP and allosteric sites to achieve superadditive binding with bivalent EGFR kinase inhibitors” (Communications Chemistry, 2024), which cites them from elsewhere.

For series [1], the system named is Ba/F3 cells, wildtype EGFR. To be noted: Ba/F3 ref 4 Wittlinger and Heppner; read-out: EGFR EC50, wt; cited from earlier work.
The test system of series [2] is Ba/F3 cells, L858R EGFR. As to conditions: Ba/F3 ref 4 Wittlinger and Heppner; read-out: EGFR EC50, LR; cited from earlier work.
The test system of series [3] is Ba/F3 cells, L858R/T790M EGFR. To be noted: Ba/F3 ref 4 Wittlinger and Heppner; read-out: EGFR EC50, LR/TM; cited from earlier work.
The subject of series [4] is Ba/F3 cells, LR/TM/CS EGFR. As to conditions: Ba/F3 ref 4 Wittlinger and Heppner; cited from earlier work.

Regarding `C=CC(=O)Nc1cc(Nc2nccc(-c3cn(C)c4ccccc34)n2)c(OC)cc1N(C)CCN(C)C` [AZD9291], the EC50 was 110 ± 40 nM in series [1], 3.3 ± 0.6 nM in series [2], 8 nM in series [3] and 1200 ± 130 nM in series [4].
